Twelve compounds from ChEMBL document CHEMBL1201862, “PubChem BioAssay data set” (2004) can be followed below.

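The compound was tested at five concentrations on cells cultured in 96-well plates, with a 48-hour exposure period. GI50 = concentration required for 50% inhibition of growth.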 Calls of active or inactive are those of the source. No stated cut-off is given here; in the data, active = GI50 up to about 1.1 µM and inactive = higher. Where only a bound is given, the exact number is not on record here.

As usually defined, the GI50 is the concentration at which growth is held to half of that of the control.

Among the test systems are TK-10; EKVX; SW-620; NCI-H460; SN12C; CAKI-1; NCI-H226; KM-20L2; HOP-92; SNB-75; A549; SR; MOLT-4; NCI-H23; HL-60; LOX IMVI; HCT-116; SK-MEL-5.
Common to all, as to test: DTP human tumour cell line panel, 48 h

`N#CC(c1ccc(Cl)cc1)c1cccc(Cl)n1` (stereo not drawn): the GI50 in the experiment on TK-10 was 33.2 µM (inactive); in the experiment on EKVX, 39 µM (inactive); in the experiment with SW-620, > 100 µM (inactive); in the experiment with NCI-H460, > 100 µM (inactive); with SN12C, 54.3 µM (inactive); in the experiment on CAKI-1 it was 25.3 µM (inactive). In addition, the GI50 was 43.6 µM (inactive) in the experiment with NCI-H226; 80.4 µM (inactive) in the experiment with KM-20L2; 30.2 µM (inactive) in the experiment with HOP-92; 21.5 µM (inactive) in the experiment on SNB-75; 31 µM (inactive) with A549; 45.1 µM (inactive) in the experiment with SR. The GI50 in the experiment on MOLT-4 is 55.8 µM (inactive); in the experiment on NCI-H23 it was 43.3 µM (inactive); with HL-60, 47.1 µM (inactive).

As for `CC1=CC(=O)NP(=O)(Oc2ccc(C)cc2)N1` (stereo not drawn), the GI50 in the experiment on TK-10, in the experiment on EKVX, in the experiment with SW-620, in the experiment with LOX IMVI, with NCI-H460 and in the experiment on SN12C was > 100 µM (inactive) each time. Moreover, the GI50 in the experiment with CAKI-1, in the experiment with HCT-116, with NCI-H226, in the experiment with KM-20L2, in the experiment on HOP-92 and in the experiment with SNB-75 was > 100 µM (inactive) in each case. The GI50 in the experiment on SR, in the experiment on SK-MEL-5, in the experiment on MOLT-4, in the experiment on NCI-H23 and in the experiment with HL-60 was > 100 µM (inactive) each time.

On to `COc1ccc([C@@H]2OC(=O)C3C2C(=O)O[C@H]3c2ccc(OC)cc2)cc1` (stereo partly drawn), for which the GI50 with EKVX, with SW-620, in the experiment on NCI-H460, with SN12C, with CAKI-1 and in the experiment with HCT-116 was > 100 µM (inactive) throughout. Also, the GI50 with KM-20L2 was > 100 µM (inactive); in the experiment with HOP-92, 0.209 µM (active); in the experiment on SNB-75 it was > 100 µM (inactive); with A549, > 100 µM (inactive); in the experiment on SR, > 100 µM (inactive); with MOLT-4, > 100 µM (inactive). The GI50 with NCI-H23 and with HL-60 was > 100 µM (inactive) throughout.

`O=C1C2=C(CCCCC2)C2CCCCC12O` (stereo not drawn): the GI50 in the experiment with TK-10, in the experiment with EKVX, in the experiment with SW-620, with LOX IMVI, in the experiment with NCI-H460 and in the experiment with SN12C was > 100 µM (inactive) in each case. Also, the GI50 with HCT-116, in the experiment on NCI-H226, with KM-20L2, in the experiment on HOP-92, in the experiment on SNB-75 and with A549 was > 100 µM (inactive) throughout. Also, the GI50 with SR, in the experiment on MOLT-4, in the experiment on NCI-H23 and in the experiment with HL-60 was > 100 µM (inactive) in each case.

Take `CN1C/C(=C\c2ccccc2)C2=NN(C(N)=S)[C@H](c3ccccc3)[C@@H]2C1`: the GI50 was > 100 µM (inactive) in the experiment on TK-10; > 100 µM (inactive) in the experiment on EKVX; > 100 µM (inactive) in the experiment with SW-620; > 100 µM (inactive) with LOX IMVI; 50.5 µM (inactive) in the experiment with NCI-H460; > 100 µM (inactive) in the experiment on SN12C. Besides, the GI50 in the experiment on HCT-116 is 37.3 µM (inactive); in the experiment with NCI-H226, 75.5 µM (inactive); with KM-20L2, 55.6 µM (inactive); in the experiment with HOP-92 it was 75.3 µM (inactive); with A549 it was 52 µM (inactive); in the experiment with SR, > 100 µM (inactive). The values for the GI50 in the experiment on MOLT-4, in the experiment with NCI-H23 and in the experiment with HL-60 were 89.1 µM (inactive), 56.4 µM (inactive) and 21.7 µM (inactive), respectively.

Take `Cc1cccc(C)c1NC(=O)CCC(=O)CC(=O)C(C)C`: the GI50 in the experiment on TK-10, with EKVX, in the experiment with SW-620, in the experiment on NCI-H460, in the experiment with SN12C and in the experiment with CAKI-1 was > 100 µM (inactive) throughout. In addition, the GI50 in the experiment on HCT-116, in the experiment on NCI-H226, in the experiment with KM-20L2, with HOP-92, in the experiment on SNB-75 and in the experiment with A549 was > 100 µM (inactive) throughout. Also, the GI50 with SR, with SK-MEL-5, in the experiment with MOLT-4, with NCI-H23 and with HL-60 was > 100 µM (inactive) throughout.

Turning to `c1ccc(COCC2OC3c4ccccc4COC3C2OCc2ccccc2)cc1` (stereo not drawn), the GI50 with TK-10 was > 100 µM (inactive); in the experiment on EKVX, > 100 µM (inactive); in the experiment with SW-620, > 100 µM (inactive); with NCI-H460, 71.6 µM (inactive); in the experiment with SN12C, > 100 µM (inactive); in the experiment on CAKI-1, 76.9 µM (inactive). In addition, the GI50 in the experiment with HCT-116 was 71.3 µM (inactive); with NCI-H226 it was > 100 µM (inactive); in the experiment on KM-20L2 it was > 100 µM (inactive); with HOP-92, 19.4 µM (inactive); with SNB-75, 39.6 µM (inactive); with A549 it was > 100 µM (inactive). Besides, the GI50 in the experiment on SR is 57.8 µM (inactive); with SK-MEL-5, 70.6 µM (inactive); in the experiment with MOLT-4, 48.8 µM (inactive); in the experiment with NCI-H23, 94.8 µM (inactive).

Turning to `CC1OC(n2cc(C(F)(F)F)c(=O)[nH]c2=O)C=CC1=O` (stereo not drawn), the GI50 in the experiment on TK-10 was 20.9 µM (inactive); with SW-620, 17.6 µM (inactive); in the experiment on LOX IMVI it was 17.6 µM (inactive); in the experiment on NCI-H460 it was 23.5 µM (inactive); with SN12C, 23.3 µM (inactive); in the experiment with HCT-116 it was 16.2 µM (inactive). Further, the GI50 in the experiment with NCI-H226 is 28.4 µM (inactive); with KM-20L2, 22.3 µM (inactive); in the experiment with HOP-92, 23.9 µM (inactive); with SNB-75, 16 µM (inactive); with A549, 47.3 µM (inactive); in the experiment on SR, 12.7 µM (inactive). The GI50 was 22.6 µM (inactive) with MOLT-4, 18.2 µM (inactive) in the experiment on NCI-H23 and 18.5 µM (inactive) in the experiment with HL-60.

`COC(=O)C1=C(C(=O)OC)C2C(C)=CC(C)=CN2C(C#N)=C(SC)S1` (stereo not drawn): the GI50 is 35.2 µM (inactive) with TK-10; 25.9 µM (inactive) with EKVX; 19.9 µM (inactive) in the experiment on SW-620; 17.9 µM (inactive) in the experiment with LOX IMVI; > 100 µM (inactive) in the experiment with NCI-H460; 21.4 µM (inactive) in the experiment with SN12C. The GI50 is 20.3 µM (inactive) with CAKI-1; 15 µM (inactive) in the experiment on HCT-116; 17 µM (inactive) in the experiment with NCI-H226; 32.7 µM (inactive) in the experiment on KM-20L2; 23.2 µM (inactive) in the experiment with SNB-75; 37.2 µM (inactive) in the experiment on A549. Moreover, the GI50 in the experiment with SR was 19 µM (inactive); with SK-MEL-5 it was 14.6 µM (inactive); with MOLT-4, 23.6 µM (inactive); in the experiment with NCI-H23, 17.7 µM (inactive); in the experiment on HL-60, 19.5 µM (inactive).

Take `CC(=O)OCC1OC(N2C(=O)C(=O)c3ccccc32)C(OC(C)=O)C(OC(C)=O)C1OC(C)=O` (stereo not drawn): the GI50 in the experiment with TK-10, in the experiment with EKVX, in the experiment with SW-620, in the experiment with LOX IMVI, in the experiment on NCI-H460 and in the experiment with SN12C was > 100 µM (inactive) in each case. Also, the GI50 in the experiment on CAKI-1, in the experiment on NCI-H226, in the experiment on KM-20L2, in the experiment with HOP-92, in the experiment on SNB-75 and in the experiment on A549 was > 100 µM (inactive) each time. Moreover, the GI50 in the experiment on SR, in the experiment on SK-MEL-5, with MOLT-4 and in the experiment on NCI-H23 was > 100 µM (inactive) in each case.

Consider `Cc1c(Cl)ccc2[s+]snc12`, for which the GI50 with TK-10 is 62.7 µM (inactive); in the experiment on EKVX, > 100 µM (inactive); in the experiment on SW-620, 27.7 µM (inactive); with LOX IMVI, 23.7 µM (inactive); in the experiment on NCI-H460, 55 µM (inactive); with SN12C, 24.3 µM (inactive). Further, the GI50 in the experiment on CAKI-1 was 37.9 µM (inactive); in the experiment on HCT-116, 22.7 µM (inactive); in the experiment on NCI-H226 it was 68.4 µM (inactive); with KM-20L2, > 100 µM (inactive); in the experiment with SNB-75, 67.6 µM (inactive); with A549, 38.6 µM (inactive). For the same compound, the GI50 with SR is 25.2 µM (inactive); with SK-MEL-5 it was 21 µM (inactive); in the experiment with MOLT-4, 26.7 µM (inactive); with NCI-H23, 52.5 µM (inactive); in the experiment on HL-60, 17.6 µM (inactive).

Take `O=C1C2C3C=C4c5ccccc5N(c5ccccc5)C4(C2C(=O)N1c1ccc(Cl)cc1)[C@H]1C(=O)N(c2ccc(Cl)cc2)C(=O)[C@@H]31` (stereo partly drawn): the GI50 in the experiment with TK-10, in the experiment with EKVX, in the experiment on SW-620, in the experiment with LOX IMVI, in the experiment on NCI-H460 and with SN12C was > 100 µM (inactive) each time. Also, the GI50 in the experiment on CAKI-1 was 14.7 µM (inactive); in the experiment with HCT-116, 78.3 µM (inactive); in the experiment on NCI-H226 it was > 100 µM (inactive); with KM-20L2 it was > 100 µM (inactive); in the experiment on HOP-92 it was > 100 µM (inactive); with SNB-75, > 100 µM (inactive). The GI50 in the experiment on A549, in the experiment on SR, in the experiment with SK-MEL-5, in the experiment on MOLT-4, in the experiment with NCI-H23 and in the experiment on HL-60 was > 100 µM (inactive) in each case.
